Experimental data published in ChEMBL document CHEMBL1201862, “PubChem BioAssay data set” (2004).
The source made the active and inactive calls.

What was measured:
[1] = target: T1, Long-chain-fatty-acid--AMP ligase FadD28 (Mycobacterium tuberculosis, UniProt P9WQ59); test: Fluorescence polarization aasay to screen for inhibitors that compete for the binding of FadD28 to a bisubstrate Measured in Biochemical System Using Plate Reader - 2147-01_Inhibitor_Dose_CherryPick_Activity.; assay type: functional, Mycobacterium tuberculosis H37Rv
T1 sequence (P9WQ59 whole entry): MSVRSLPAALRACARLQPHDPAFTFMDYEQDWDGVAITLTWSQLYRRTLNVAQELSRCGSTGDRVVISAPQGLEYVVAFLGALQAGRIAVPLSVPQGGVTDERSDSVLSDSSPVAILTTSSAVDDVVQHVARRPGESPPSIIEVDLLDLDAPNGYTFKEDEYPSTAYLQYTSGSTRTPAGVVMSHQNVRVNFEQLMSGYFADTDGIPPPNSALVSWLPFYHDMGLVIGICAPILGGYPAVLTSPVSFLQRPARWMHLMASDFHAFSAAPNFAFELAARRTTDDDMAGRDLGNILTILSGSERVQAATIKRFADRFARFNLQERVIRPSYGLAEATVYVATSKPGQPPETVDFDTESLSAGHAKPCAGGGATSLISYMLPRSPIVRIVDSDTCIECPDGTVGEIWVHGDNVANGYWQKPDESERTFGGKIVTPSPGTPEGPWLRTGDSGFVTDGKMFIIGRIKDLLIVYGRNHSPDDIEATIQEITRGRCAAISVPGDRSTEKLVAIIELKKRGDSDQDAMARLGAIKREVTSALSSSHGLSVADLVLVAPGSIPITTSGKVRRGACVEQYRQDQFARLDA

[2] = A cytotoxicity screen of small molecule inhibitors of the PhoP region in Salmonella typhi identified in the primary screen. [Related pubchem assays: 1850, 1864, 1985 ]; assay type: functional
[3] = blockade of melanocortin 4 receptor signaling – cell-based, plate reader, cherry pick, counter-screen for LGR2 antagonist project, dose response (AID 743444); assay type: functional;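 also: transfected HEK 293 cells stimulated with alpha-MSH peptide; potency of inhibitors of the alpha-MSH evoked signal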
[4] = alpha-synuclein stem-loop luciferase translation blockers – H4 neuroglioma cells, luminescence, confirmation (AID 1988); assay type: functional, cell-based
[5] = A549 cell cytotoxicity, dose response, cytotoxicity control, plate reader, cherry-pick, antagonist series (AID 743412); assay type: functional, cell-based
[6] = Luminescence Cell-Based Dose Response HTS to Identify Inhibitors of 5'UTR Stem-Loop Driven Prion Protein mRNA Translation in H4 Neuroglioblastoma Cells. [Related pubchem assays: 1827 (Project Summary), 1813 (Primary HTS)]; assay type: functional
[7] = blockers of bursicon-stimulated LGR2 cAMP reporter – cell-based, HEK293, CRE-luciferase reporter, cherry pick, set 2, dose response (AID 743343); assay type: functional;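 also: transfected cells were stimulated with diluted bursicon conditioned medium after compound addition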
[8] = target: T2, DNA repair protein RAD52 homolog (Homo sapiens, UniProt P43351); assay type: functional, biochemical
T2 sequence (P43351 whole entry): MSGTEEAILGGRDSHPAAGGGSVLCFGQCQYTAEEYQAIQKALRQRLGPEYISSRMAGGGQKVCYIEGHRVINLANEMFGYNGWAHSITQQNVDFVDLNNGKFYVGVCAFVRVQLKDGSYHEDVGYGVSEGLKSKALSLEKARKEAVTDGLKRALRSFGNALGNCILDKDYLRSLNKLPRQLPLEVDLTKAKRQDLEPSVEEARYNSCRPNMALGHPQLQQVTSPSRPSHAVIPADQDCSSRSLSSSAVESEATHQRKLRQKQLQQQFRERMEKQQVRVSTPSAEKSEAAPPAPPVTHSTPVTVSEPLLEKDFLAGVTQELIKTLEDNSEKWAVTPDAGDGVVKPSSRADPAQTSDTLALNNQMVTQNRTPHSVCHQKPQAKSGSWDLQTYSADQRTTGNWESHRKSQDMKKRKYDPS

[9] = viability of HCT116 lacking mutant beta-catenin – cell-based, human colon tumor, dose response (AID 1045); assay type: functional;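 also: HCT116 colon tumor cells with beta catenin knocked out; cells exposed to compound for 60 hours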
[10] = NIH3T3 cell viability loss – ATP luminescence, mouse fibroblasts, counter-screen, dose response (AID 2010); assay type: functional, cell-based;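 also: cells exposed to compound for about 90 hours before reading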
[11] = Trypanosoma cruzi growth suppression in host cells – NIH3T3 host cells, beta-gal luminescence, confirmation (AID 2044); assay type: functional, cell-based;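 also: intracellular parasites grown in NIH/3T3 mouse fibroblasts as host cells; luminescent beta-galactosidase reporter signal from transgenic T. cruzi replicating inside host cells; inhibitors lower the luminescence signal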
[12] = viability of PTEN-deleted HCT116 cells – cell-based, HCT116 PTEN knockout, dose response (AID 1047); assay type: functional;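 also: HCT116 colon tumor cells with PTEN knocked out; cells exposed to compound for 60 hours before readout; potency for loss of cell viability measured by luminescence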
[13] = target: T3, Hepatocyte nuclear factor 4-alpha (Homo sapiens, UniProt P41235); assay type: functional, cell-based;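 also: biochemical luminescence-based dose-response counterscreen measuring inhibition of HNF4 dimerization, run alongside a screen for blockers of ABHD5–perilipin-5 interaction; split luciferase complementation of HNF4 fusion proteins in cell lysate measuring dimerization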
T3 sequence (P41235 whole entry): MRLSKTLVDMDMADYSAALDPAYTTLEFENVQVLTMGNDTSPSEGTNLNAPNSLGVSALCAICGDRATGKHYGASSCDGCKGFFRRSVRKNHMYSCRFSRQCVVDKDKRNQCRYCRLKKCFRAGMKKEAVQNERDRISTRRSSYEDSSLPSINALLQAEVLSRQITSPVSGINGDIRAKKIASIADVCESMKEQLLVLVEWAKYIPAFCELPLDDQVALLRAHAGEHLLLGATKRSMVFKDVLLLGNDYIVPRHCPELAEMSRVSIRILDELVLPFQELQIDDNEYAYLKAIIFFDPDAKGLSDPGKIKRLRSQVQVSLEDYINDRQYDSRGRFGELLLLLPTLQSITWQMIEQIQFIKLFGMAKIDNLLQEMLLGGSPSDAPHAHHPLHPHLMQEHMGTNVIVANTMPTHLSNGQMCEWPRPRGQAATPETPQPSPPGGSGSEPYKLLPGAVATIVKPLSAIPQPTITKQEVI

In the case of `Cc1c(C)n(C)c2ccc(C(=O)NCc3cccs3)cc12`, the AC50 [1] is reported as 56.8 µM (active) and the EC50 [2] is reported as > 50 µM (active).
For `Cc1cnc(NC(=O)COc2ccccc2Cl)s1`, the AC50 [3] was 2.3 µM (active), the EC50 [4] was 1.25 µM (active) and the AC50 [5] was > 52 µM (inactive). For the same compound, the EC50 [6] was 0.491 µM (active) and the AC50 [7] was 2.33 µM (active).
In the case of `CCN(CC)CCCN(C(=O)c1ccc(OC)cc1)c1nc(-c2ccc(OC)cc2)cs1`, the AC50 [8] is reported as 18.1 µM (active).
For `COc1ccccc1NC(=O)Cn1cnc2c(oc3nc4c(cc32)CCCC4)c1=O`, the AC50 [1] was 77.8 µM (active).
For `CN(C)CCCn1c(SCC(=O)N2c3ccccc3Sc3ccccc32)nc2ccccc2c1=O`, the EC50 [9] was 4.73 µM (active), the AC50 [8] was 17.1 µM (active) and the EC50 [10] was > 60 µM (not active). For the same compound, the EC50 [11] was 0.268 µM (active) and the EC50 [12] was 5.64 µM (active).
With `CN(C)c1ccc(/C=C2/C(=O)N(CCc3ccc(F)cc3)C(=O)N=C2O)cc1` the AC50 [1] was 23.4 µM (active).
For `CN(C)CCNC(=O)c1cccc2nc3c(ccc4ccccc43)nc12`, the AC50 [8] was 0.501 µM (active).
In the case of `Oc1c(C(c2ccccc2)N2CCCCC2)ccc2ccccc12` (centres undefined), the IC50 [13] is reported as 0.828 µM (active).
With `O=C(NCc1ccccc1)C(c1cccc2ccccc12)n1c(=O)c(-c2ccco2)nc2ccccc21` (centres undefined) the IC50 [13] was 2.77 µM (active).
In the case of `CC(C)(C)NC(=O)C(c1ccnc2ccccc12)n1c(=O)c(-c2ccco2)nc2ccccc21` (centres undefined), the IC50 [13] is reported as 3.18 µM (active).
